Laboratory results: publication PMC11615292, “Fast-diffusing receptor collisions with slow-diffusing peptide ligand assemble the ternary parathyroid hormone–GPCR–arrestin complex” (Nature Communications, 2024)

Legend:
βarr2L69C-BIM = biological target: T1, βarr2L69C-BIM (Homo sapiens, UniProt P32121, C126S/C141L/C151V/C17S/C243V/C252V/C270S/C409S/C60V/L69C); assay: bimane fluorescence titration, single-site fit; assay type: binding
T1 construct: gene ARRB2; Cys-less full-length βarr2 with L69C in finger loop, labelled with monobromobimane at C69; E. coli NiCo21(DE3), pET-15b; N-terminal 6xHis-3C removed by 3C protease, GG-AviTag-GGSGGS linker kept
From the text: bimane fluorescence titration, single-site fit on βarr2L69C-BIM | PIP3 binds βarr2 with higher affinity than PIP2 and induces a conformational change | Like PIP2 and V2Rpp, PIP3 induced a concentration-dependent increase in bimane fluorescence

[1] = biological target: PTH type 1 receptor C-terminally fused to monomeric NeonGreen (PTH1R^mNG) (human) (UniProt Q03431)
Chain of PTH type 1 receptor C-terminally fused to monomeric NeonGreen (PTH1R^mNG) (human) (Q03431 27-593): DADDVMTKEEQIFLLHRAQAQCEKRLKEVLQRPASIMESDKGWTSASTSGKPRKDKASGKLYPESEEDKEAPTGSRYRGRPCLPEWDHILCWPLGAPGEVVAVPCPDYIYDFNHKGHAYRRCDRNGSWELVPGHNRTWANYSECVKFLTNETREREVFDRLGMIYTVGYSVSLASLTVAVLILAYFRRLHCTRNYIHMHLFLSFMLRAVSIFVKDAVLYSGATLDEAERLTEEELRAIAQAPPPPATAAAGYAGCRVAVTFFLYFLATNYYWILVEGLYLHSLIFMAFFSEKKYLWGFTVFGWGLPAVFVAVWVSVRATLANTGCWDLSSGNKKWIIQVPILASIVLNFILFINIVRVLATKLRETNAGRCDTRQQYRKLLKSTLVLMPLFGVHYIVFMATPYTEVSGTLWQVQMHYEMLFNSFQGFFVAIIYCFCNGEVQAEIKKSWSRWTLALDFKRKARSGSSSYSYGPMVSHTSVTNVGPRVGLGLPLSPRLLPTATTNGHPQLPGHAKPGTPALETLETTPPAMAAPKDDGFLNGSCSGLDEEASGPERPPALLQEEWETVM

T1 sequence (P32121 whole entry C17S/C60V/L69C/C126S/C141L/C151V/C243V/C252V/C270S/C409S): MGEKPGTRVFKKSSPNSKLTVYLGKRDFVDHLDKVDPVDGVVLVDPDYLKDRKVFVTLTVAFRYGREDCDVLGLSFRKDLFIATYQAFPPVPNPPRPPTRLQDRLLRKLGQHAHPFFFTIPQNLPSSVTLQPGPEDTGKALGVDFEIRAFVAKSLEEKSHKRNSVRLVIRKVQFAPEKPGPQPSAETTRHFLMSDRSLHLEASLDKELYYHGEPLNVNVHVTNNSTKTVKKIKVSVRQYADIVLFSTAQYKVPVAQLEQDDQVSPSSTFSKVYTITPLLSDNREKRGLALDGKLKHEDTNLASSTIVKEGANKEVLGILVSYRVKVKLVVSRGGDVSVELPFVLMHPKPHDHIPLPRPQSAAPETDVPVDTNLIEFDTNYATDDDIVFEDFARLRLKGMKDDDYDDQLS

Compound	Kd (βarr2L69C-BIM) [µM]	average diffusion coefficient (D) of PTH1R^mNG molecules in the presence of PTH^TMR (0.088 µm^2/s in the absence of the ligand), single-molecule tracking [1] [µm^2/s]
CCCCCCCC(=O)OC[C@H](COP(=O)(O)O[C@@H]1[C@H](O)[C@H](O)[C@@H](OP(=O)(O)O)[C@H](OP(=O)(O)O)[C@H]1O)OC(=O)CCCCCCC [di-C8-PI(4,5)P2]	64.8 ± 16.8	–
CCCCCCCC(=O)OC[C@H](COP(=O)(O)O[C@H]1[C@H](O)[C@@H](OP(=O)(O)O)[C@H](OP(=O)(O)O)[C@@H](OP(=O)(O)O)[C@H]1O)OC(=O)CCCCCCC [diC8-PI(3,4,5)P3]	15.5 ± 2.6	–
PTH(1-34) labeled in position 13 with tetramethylrhodamine (PTH^TMR) (peptide)	–	0.02
